Laboratory results from patent publication US9187465B2, “Oxazole tyrosine kinase inhibitors” (Sareum Limited, priority 2007, dated 2015).
Counter-ions that a name gives are not always drawn.

How the values were obtained:
Type in all cases: biochemical
human FLT4 = biological target: T1, human FLT4 (Homo sapiens, UniProt P35916); assay: FLT4 kinase assay (DELFIA enzyme inhibition); conditions: read-out: FLT4 IC50
T1 construct: a construct expressing the human FLT4 (789-1207) with an amino terminal GST tag; host or cells: Sf9 insect cells (baculovirus)
Method in brief: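 GST-tagged human FLT4 (789-1207) from Sf9 cells phosphorylates a biotinylated MET (Tyr1253)-derived peptide for 30 min at room temperature, stopped with EDTA. Phosphopeptide is captured on Neutravidin and detected with Eu-labelled anti-phosphotyrosine antibody by time-resolved fluorescence; IC50 from % inhibition curves.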

human FLT3 = biological target: T2, human FLT3 (Homo sapiens, UniProt P36888); assay: FLT3 kinase assay (DELFIA enzyme inhibition)
T2 construct: a construct expressing the human FLT3 (564-993) with an amino terminal GST tag; host or cells: Sf9 insect cells (baculovirus)
T2 sequence (P36888 564-993): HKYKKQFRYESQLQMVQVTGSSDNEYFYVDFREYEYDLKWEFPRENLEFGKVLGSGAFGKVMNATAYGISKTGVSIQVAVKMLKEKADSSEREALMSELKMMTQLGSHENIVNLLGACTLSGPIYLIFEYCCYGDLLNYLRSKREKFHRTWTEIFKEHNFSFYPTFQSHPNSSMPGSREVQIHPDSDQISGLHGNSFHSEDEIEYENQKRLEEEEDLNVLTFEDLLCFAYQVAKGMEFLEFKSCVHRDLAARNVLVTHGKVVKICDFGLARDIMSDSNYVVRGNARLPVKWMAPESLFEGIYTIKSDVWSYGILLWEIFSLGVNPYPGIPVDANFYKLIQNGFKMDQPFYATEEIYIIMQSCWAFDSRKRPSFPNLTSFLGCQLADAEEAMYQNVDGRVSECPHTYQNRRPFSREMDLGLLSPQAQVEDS
Description: A GST-kinase fusion protein of 70 KDa was produced using sf9 baculovirus expression system, with a construct expressing the human FLT3 (564-993) with an amino terminal GST tag. The protein was purified by one-step affinity chromatography using glutathione-agarose.
FLT3 enzyme activity is determined using a Dissociation Enhanced Lanthanide Fluorescent Immunoassay (DELFIA) with a peptide substrate derived from the Gastrin Precursor (Tyr 87) peptide […] with a core sequence: EAYGW.
The amount of phosphorylated peptide produced is detected by means of a phospho-Tyrosine specific Europium-labelled antibody using Time-Resolved Fluorescence at Excitation 360-35 nm and Emission 620-35 nm.
Assay reactions are set up in a 25 uL final volume on a 96 well plate. […] The reaction is allowed to proceed for 30 minutes at room temperature before stopping with 100 μL Stop solution comprising of 100 mM EDTA, 1×BSA blocker in TBS (Perbio) and 0.05% Surfact-Amps20 (Perbio).
The stopped reaction is transferred to a black 96-well Neutravidin-coated plate (Perbio) and incubated for 30 minutes to capture the biotinylated peptide substrate. After washing wells 3 times with 200 uL TBS/T buffer, Anti-Phospho-Tyr-100 antibody labelled with Eu—N1 (Perkin Elmer AD0159) is added to all wells for 60 minutes at room temperature. After a repeat washing step, DELFIA Enhancement solution (Perkin Elmer) is added to all wells for 5 minutes and the fluorescence measured on a plate reader Analyst HT (Molecular Devices).
The % inhibition of the activity is calculated and plotted in order to determine the concentration of test compound required to inhibit 50% of the enzyme activity (IC50).

human Aurora A = biological target: T3, human Aurora A (Homo sapiens, UniProt O14965); assay: Aurora A kinase assay (DELFIA enzyme inhibition); conditions: read-out: Aurora A IC50
T3 construct: Histidine tag (N); host or cells: Sf9 insect cells (baculovirus)
T3 sequence (O14965 1-403): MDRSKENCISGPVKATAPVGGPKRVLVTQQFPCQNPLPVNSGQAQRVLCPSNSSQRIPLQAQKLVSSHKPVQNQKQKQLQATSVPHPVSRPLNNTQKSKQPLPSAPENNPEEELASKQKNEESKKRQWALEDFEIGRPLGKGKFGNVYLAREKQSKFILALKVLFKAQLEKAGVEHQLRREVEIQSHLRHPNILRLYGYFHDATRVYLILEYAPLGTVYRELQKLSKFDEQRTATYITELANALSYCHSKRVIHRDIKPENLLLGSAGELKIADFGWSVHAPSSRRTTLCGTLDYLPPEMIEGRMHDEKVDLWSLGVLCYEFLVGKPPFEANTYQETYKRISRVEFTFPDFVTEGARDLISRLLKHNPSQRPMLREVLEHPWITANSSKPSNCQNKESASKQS
Method in brief: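 DELFIA read-out (time-resolved Eu fluorescence, 620 nm emission) after Neutravidin capture of biotinylated peptide substrate and antibody detection. Reaction: Ni-agarose-purified Aurora A, 30 min at room temperature, stopped with 100 mM EDTA.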

T1 sequence (P35916 789-1207): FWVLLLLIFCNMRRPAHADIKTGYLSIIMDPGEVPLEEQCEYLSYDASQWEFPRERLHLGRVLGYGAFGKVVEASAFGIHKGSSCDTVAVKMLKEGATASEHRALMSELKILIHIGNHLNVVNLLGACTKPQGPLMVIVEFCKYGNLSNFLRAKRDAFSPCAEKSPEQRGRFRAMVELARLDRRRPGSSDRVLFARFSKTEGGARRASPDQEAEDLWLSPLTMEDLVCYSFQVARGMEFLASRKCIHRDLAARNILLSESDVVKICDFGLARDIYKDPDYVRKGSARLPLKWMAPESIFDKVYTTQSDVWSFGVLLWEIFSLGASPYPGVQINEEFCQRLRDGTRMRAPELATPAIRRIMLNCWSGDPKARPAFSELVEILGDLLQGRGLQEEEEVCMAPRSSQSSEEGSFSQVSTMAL

Row | IC50 (human FLT4) [µM] | IC50 (human FLT3) [µM] | IC50 (human Aurora A) [µM] | Compound
1 | < 10 | < 100 | < 10 | NC(=O)c1nc(-c2c(F)cccc2F)oc1-c1ccc(CN2CCNCC2)cc1 [Example G-1, 2-(2,6-difluorophenyl)-5-(4-(piperazin-1-ylmethyl)phenyl)oxazole-4-carboxamide]
2 | < 10 | < 10 | < 10 | NC(=O)c1nc(-c2c(F)cccc2F)oc1-c1ccc(N2CCNCC2)nc1 [Example G-2, 2-(2,6-difluorophenyl)-5-(6-(piperazin-1-yl)pyridin-3-yl)oxazole-4-carboxamide dihydrochloride]
3 | < 10 | < 10 | < 10 | NC(=O)c1nc(-c2ccccc2F)oc1-c1ccc(N2CCNCC2)cc1 [Example G-4, 2-(2-fluorophenyl)-5-(4-(piperazin-1-yl)phenyl)oxazole-4-carboxamide]
4 | < 10 | < 10 | < 10 | CN1CCN(c2ccc(-c3oc(-c4c(F)cccc4F)nc3C(N)=O)cc2)CC1 [Example H-1, 2-(2,6-difluorophenyl)-5-(4-(4-methylpiperazin-1-yl)phenyl)oxazole-4-carboxamide]
5 | < 10 | < 10 | < 10 | CN1CCN(c2ccc(-c3oc(-c4c(F)cccc4F)nc3C(N)=O)cn2)CC1 [Example H-2, 2-(2,6-difluorophenyl)-5-(6-(4-methylpiperazin-1-yl)pyridin-3-yl)oxazole-4-carboxamide]
6 | < 10 | < 10 | < 10 | CC(=O)N1CCN(c2ccc(-c3oc(-c4c(F)cccc4F)nc3C(N)=O)cc2)CC1 [Example I-1, 5-(4-(4-acetylpiperazin-1-yl)phenyl)-2-(2,6-difluorophenyl)oxazole-4-carboxamide]
7 | < 10 | < 10 | < 10 | CC(=O)N1CCN(c2ccc(-c3oc(-c4c(F)cccc4F)nc3C(N)=O)cn2)CC1 [Example I-2, 5-(6-(4-acetylpiperazin-1-yl)pyridin-3-yl)-2-(2,6-difluorophenyl)oxazole-4-carboxamide]
8 | < 10 | < 10 | < 10 | CNC(=O)N1CCN(c2ccc(-c3oc(-c4c(F)cccc4F)nc3C(N)=O)cc2)CC1 [Example J-1, 4-(4-(4-carbamoyl-2-(2,6-difluorophenyl)oxazol-5-yl)phenyl)-N-methylpiperazine-1-carboxamide]
9 | < 10 | < 10 | < 10 | CNC(=O)N1CCN(c2ccc(-c3oc(-c4c(F)cccc4F)nc3C(N)=O)cn2)CC1 [Example J-2, 4-(5-(4-carbamoyl-2-(2,6-difluorophenyl)oxazol-5-yl)pyridin-2-yl)-N-methylpiperazine-1-carboxamide]
10 | < 10 | < 100 | < 100 | COc1ccc(-c2oc(-c3ccccc3F)nc2C(N)=O)cc1 [Example M-3, 2-(2-fluorophenyl)-5-(4-methoxyphenyl)oxazole-4-carboxamide]
11 | < 10 | < 10 | < 100 | COc1ccc(-c2oc(-c3cccc4[nH]ccc34)nc2C(N)=O)cc1 [Example M-4, 2-(1H-indol-4-yl)-5-(4-methoxyphenyl)oxazole-4-carboxamide]
12 | < 10 | < 100 | < 10 | COc1ccc(-c2oc(-c3cn[nH]c3)nc2C(N)=O)cc1 [Example N-2, 5-(4-methoxyphenyl)-2-(1H-pyrazol-4-yl)oxazole-4-carboxamide]
13 | < 100 | < 100 | < 100 | COc1ccc(-c2oc(-c3cccc(C(F)(F)F)c3F)nc2C(N)=O)cc1 [Example N-7, 2-(2-fluoro-3-(trifluoromethyl)phenyl)-5-(4-methoxyphenyl)oxazole-4-carboxamide]
14 | < 10 | < 10 | < 10 | NC(=O)c1nc(-c2c(F)cccc2F)oc1Nc1cccc(N2CCOCC2)c1 [Example Q-2, 2-(2,6-difluorophenyl)-5-(3-morpholinophenylamino)oxazole-4-carboxamide]
15 | < 10 | < 10 | < 10 | NC(=O)c1nc(-c2c(F)cccc2F)oc1Nc1cccc(OCCN2CCOCC2)c1 [Example Q-10, 2-(2,6-difluorophenyl)-5-(3-(2-morpholinoethoxy)phenylamino)oxazole-4-carboxamide]
16 | < 10 | < 10 | < 10 | NC(=O)c1nc(-c2c(F)cccc2F)oc1Nc1cccc(N2CCNCC2)c1 [Example Q-12, 2-(2,6-difluorophenyl)-5-(3-(piperazin-1-yl)phenylamino)oxazole-4-carboxamide formate salt]
17 | < 10 | < 10 | < 100 | NC(=O)c1nc(-c2c(F)cccc2F)oc1Nc1ccc(N2CCCCC2)cc1 [Example Q-13, 2-(2,6-difluorophenyl)-5-(4-(piperidin-1-yl)phenylamino)oxazole-4-carboxamide]
18 | < 10 | < 10 | < 10 | NC(=O)c1nc(-c2c(F)cccc2F)oc1Nc1ccc(N2CCCNCC2)cc1 [Example Q-15, 5-(4-(1,4-diazepan-1-yl)phenylamino)-2-(2,6-difluorophenyl)oxazole-4-carboxamide]
19 | < 10 | < 10 | < 10 | NC(=O)c1nc(-c2c(F)cccc2F)oc1Nc1ccc(OC2CCNCC2)cc1 [Example Q-16, 2-(2,6-difluorophenyl)-5-(4-(piperidin-4-yloxy)phenylamino)oxazole-4-carboxamide]
20 | < 10 | < 10 | < 10 | NC(=O)c1nc(-c2c(F)cccc2F)oc1Nc1ccc(N2CCNC(=O)C2)cc1 [Example Q-19, 2-(2,6-difluorophenyl)-5-(4-(3-oxopiperazin-1-yl)phenylamino)oxazole-4-carboxamide]
21 | < 10 | < 10 | < 10 | CN(C)C(=O)c1ccc(Nc2oc(-c3c(F)cccc3F)nc2C(N)=O)cc1 [Example Q-20, 2-(2,6-difluorophenyl)-5-(4-(dimethylcarbamoyl)phenylamino)oxazole-4-carboxamide]
22 | < 10 | < 10 | < 10 | NC(=O)c1nc(-c2c(F)cccc2F)oc1Nc1ccc(C(=O)N2CCCCC2)cc1 [Example Q-21, 2-(2,6-difluorophenyl)-5-(4-(piperidine-1-carbonyl)phenylamino)oxazole-4-carboxamide]
23 | < 10 | < 10 | < 10 | NC(=O)c1nc(-c2c(F)cccc2F)oc1Nc1ccc(C(=O)N2CCNCC2)cc1 [Example Q-22, 2-(2,6-difluorophenyl)-5-(4-(piperazine-1-carbonyl)phenylamino)oxazole-4-carboxamide]
24 | < 10 | < 10 | < 10 | NC(=O)c1nc(-c2ccccc2F)oc1Nc1ccc(N2CCOCC2)cc1 [Example Q-23, 2-(2-Fluorophenyl)-5-(4-morpholinophenylamino)oxazole-4-carboxamide]
